From patent US20230067811A1, “MODULATING LYMPHATIC VESSELS IN NEUROLOGICAL DISEASE” (University of Virginia Patent Foundation, priority 2020, published 2023)

Test system: microglia
Assay: Single-cell RNA-seq of brain cortical myeloid cells after meningeal lymphatic ablation
Format: in vivo, mouse
Conditions: 5×FAD mice, Vis. versus Vis./photo. groups
Description: Transcriptome of sorted live CD45^+Ly6G^negCD11b^+ cells pooled from 3 mice per group was analyzed by single-cell RNA-seq (scRNA-seq).
J Neurosci 28, 14156-14164, (2008)). Thus, it was hypothesized that altered microglial function in mice with impaired meningeal lymphatics was contributing to decreased clearance of Aβ by anti-Abeta antibody. Single-cell RNA-seq was performed on live myeloid CD45^+Ly6G^negCD11b^+ cells sorted from the brain cortices of 5×FAD mice with intact or ablated meningeal lymphatics (FIG. 13A). After in-silico removal of undesired cell contaminants, shared nearest neighbor clustering and t-distributed stochastic neighbor embedding, four clusters of microglia were identified (FIG. 13B). […] Cell 169, 1276-1290 e1217, (2017); Krasemann, S. et al. The TREM2-APOE Pathway Drives the Transcriptional Phenotype of Dysfunctional Microglia in Neurodegenerative Diseases. Immunity 47, 566-581 e569, (2017)). Concomitantly, it was observed that there was a significant increase in cortical CD45^high cells (recruited leukocytes and/or activated microglia, FIGS. 13M-13Q) and in the levels of […] (encoded by the H2-D1 gene) in both CD45^intCD11b^+ (microglia) and CD45high CD11b^neg (recruited lymphoid cells) cells in mice with meningeal lymphatic dysfunction (FIGS. 13R-13U). […]

For verteporfin [Visudyne], the “frequency of microglia (% of total cells) from each cluster” value was “similar”.
